Test results from the supplement of paper PMC10307832.

What was measured:
Assay in all cases: relative viability (nuclei count vs DMSO), 5 days (fraction); higher = more cells survive
AT-7519 + Crizotinib = compound: O=C(NC1CCNCC1)c1n[nH]cc1NC(=O)c1c(Cl)cccc1Cl [AT-7519] + C[C@@H](Oc1cc(-c2cnn(C3CCNCC3)c2)cnc1N)c1c(Cl)ccc(F)c1Cl [Crizotinib] (partner 1 µM)
Method in brief: (§1)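 Medians of duplicate plates are given as relative viability. That measure is the nuclei count in treated wells divided by the count in vehicle wells. Counts were taken on 4× images of lung cancer cell lines in 1536-well plates, 5 days after pin-tool dosing the day after seeding with one drug alone or a fixed anchor-drug dose plus five library-drug doses (not always all listed) in √10 steps.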

[1] = compound: C1=CC2=C(C=C(C(=C2N=C1)O)N=NC3=CC4=C(C=C3)C=C(C=C4)S(=O)(=O)O)S(=O)(=O)O + CCNC(=O)c1noc(-c2cc(C(C)C)c(O)cc2O)c1-c1ccc(CN2CCOCC2)cc1 [Luminespib] (partner 0.01 µM)
Method in brief: as §1

[2] = compound: C1=CC2=C(C=C(C(=C2N=C1)O)N=NC3=CC4=C(C=C3)C=C(C=C4)S(=O)(=O)O)S(=O)(=O)O + CC(C)C[C@H](NC(=O)[C@H](Cc1ccccc1)NC(=O)c1cnccn1)B(O)O [Bortezomib] (partner 0.002 µM)
Method in brief: as §1

[3] = compound: C1=CC2=C(C=C(C(=C2N=C1)O)N=NC3=CC4=C(C=C3)C=C(C=C4)S(=O)(=O)O)S(=O)(=O)O + O=C(c1cc(Cc2n[nH]c(=O)c3ccccc23)ccc1F)N1CCN(C(=O)C2CC2)CC1 [Olaparib] (partner 8 µM)
Method in brief: as §1

For UMC-11, which relative viability (AT-7519 + Crizotinib; first compound 0.01 µM) is on record?
Its relative viability is 0.677.

What about the relative viability (AT-7519 + Crizotinib; first compound 0.03162 µM) of the same cell line?
Its relative viability is 0.539.

What about the relative viability (AT-7519 + Crizotinib; first compound 0.3162 µM) of the same cell line?
The relative viability was 0.302.

And the relative viability (AT-7519 + Crizotinib; first compound 1 µM)?
The relative viability was 0.13.

What about the relative viability ([1]; first compound 0.08 µM) of the same cell line?
The relative viability was 1.14.

What about the relative viability ([1]; first compound 0.253 µM) of the same cell line?
Its relative viability is 1.04.

What about the relative viability ([1]; first compound 0.8 µM) of the same cell line?
Its relative viability is 0.862.

And the relative viability ([1]; first compound 2.53 µM)?
The relative viability was 0.992.

And the relative viability ([1]; first compound 8 µM)?
The relative viability was 1.02.

And the relative viability ([2]; first compound 0.08 µM)?
The relative viability was 0.84.

What about the relative viability ([2]; first compound 0.253 µM) of the same cell line?
Its relative viability is 0.783.

What about the relative viability ([2]; first compound 0.8 µM) of the same cell line?
Its relative viability is 0.708.

And the relative viability ([2]; first compound 2.53 µM)?
Its relative viability is 0.633.

And the relative viability ([2]; first compound 8 µM)?
Its relative viability is 0.606.

What about the relative viability ([3]; first compound 0.08 µM) of the same cell line?
Its relative viability is 0.36.

What about the relative viability ([3]; first compound 0.253 µM) of the same cell line?
Its relative viability is 0.381.

And the relative viability ([3]; first compound 0.8 µM)?
The relative viability was 0.34.

What about the relative viability ([3]; first compound 2.53 µM) of the same cell line?
The relative viability was 0.376.

And the relative viability ([3]; first compound 8 µM)?
Its relative viability is 0.317.
